Experimental data taken from PMC5458179, “Oxidative DNA double strand breaks and autophagy in the antitumor effect of sterically hindered platinum(II) complexes in NSCLCs” (Oncotarget, 2017).

Legend:
MCF-7 = assay: MTT cytotoxicity assay; assay type: cell-based, human; details: exposed for 48 h
Description: Human cancer cell lines HepG2, SGC-7901, HCT-116, A549, NCI-H1299 and MCF-7 as well as normal liver cell line L02 were purchased from the Cell Bank of Shanghai Institute of Cell Biology. Among them, MCF-7, HepG2 cells were cultured at 37 °C in 5% CO2 with DMEM supplemented with 10% fetal bovine serum (FBS) (Hyclone, Lifescience, USA) and 1% penicillin/streptomycin (Beyotime, Nantong, China), while HCT-116, SGC-7901, A549, NCI-H1299 and L02 cells were cultured at 37 °C in 5% CO2 with RPMI-1640 supplemented with 10% FBS and 1% penicillin/streptomycin. Cells were passed every 2 days and restarted from frozen stocks upon reaching pass number 20.
In vitro cytotoxicity of the platinum compounds against human hepatocellular carcinoma (HepG-2), gastric carcinoma (SGC-7901), non-small-cell lung cancer (A549), and colorectal cancer (HCT-116) cell lines were measured by the MTT assays. Briefly, the cells were seeded in 96-well cultured plates at a density of 5000 cells/well. After overnight incubation (16 h), the cells were treated with the platinum complexes. […] The cell viability was evaluated by measurement of the absorbance at 490 nm, using an Absorbance Reader (BioRad). […] The reading values were converted to the percentage of control (% cell survival). Cytotoxic effects were expressed as IC50 values.

Bax and Bcl-2 = assay: Western blot of Bax and Bcl-2; assay type: cell-based, human; details: A549, 10 μM, 24 h, whole cell lysates
Description: The role of complex 3-induced autophagy in cell death was further analyzed (Figure 6). When A549 cancer cells were treated with complex 3 of 10 μM, the protein expression of LC3-II was increased (Figure 6A). […] Treatment with complex 3 for 24 h caused a 4.5-folds increase in cells undergoing autophagy (Figure 6C). […] Moreover, Bax and Bcl-2 expressions were measured by western blot analysis of whole cell lysates.
Lysates were centrifuged at 12,000 g for 0.5 h at 4°C. The concentrations of total proteins were measured using the BCA assay method with Varioskan spectrofluorometer and spectrophotometer (Thermo, Waltham, MA) at 562 nm. Protein (20–100 μg) prepared from the indicated cells was loaded per lane and electrophoresed in 8% or 10% sodium dodecyl sulfate polyacrylamide gel electrophoresis (SDS-PAGE), and then transferred onto polyvinylidene difluoride (PVDF) Immobilon-P membrane (Bio-Rad, USA) using a transblot apparatus (Bio-Rad, USA). The membranes were blocked with 5% (w/v) non-fat milk at 0.5 h at 37°C, followed by overnight incubation at 4°C with primary antibodies diluted in PBST. After washing with PBST, the membranes were incubated for 1 h with an IRDye´800 conjugated secondary antibody diluted 1:20000 in PBST, and the labeled proteins were detected with an Odyssey Scanning System (Li-COR., Lincoln, Nebraska, USA).

cancer cells = assay: Analysis of SSB (alkaline elution assay); assay type: cell-based; details: 10 μM, 15, 30 and 60 min
Description: Thus, we further identified whether the increased ROS level serves as a cause of DDR. […] To investigate the extent of DNA damage induced by complex 3, we detected the numbers of normal SSB using an alkaline elution assay.
Then the cells were washed three times with PBSCMF (140 mM NaCl, 3 mM KCl, 8 mM Na2HPO4 and 1 mM KH2PO4). The numbers of SSBs were determined by an alkaline elution assay as previously described. The numbers of SSB in untreated cancer cells were subtracted in all cases.

p-XRCC1 = assay: Immunostaining of SSB repair protein; assay type: cell-based, human; details: A549, 10 μM, 24 h
Source text: The serine 139-phosphorylated form of chromatin-associated histone H2AX, namely γ-H2AX, is a key marker of cellular response to DDR, particularly DSBs. […] Obviously, pre-treatment of NAC could considerably alleviate the DDR triggered by complex 3 (Figure 5B). Therefore, we came to a conclusion that complex 3 caused DDR especially DSBs in A549 cells, which might happen after the increased level of intracellular ROS. In order to reveal the mechanisms underlying the enhanced DNA damage, complex 3 was studied to learn whether it could reduce the activation of DNA repair response including the co-localization of DSB repair protein MDC1/Aprataxin within nucleus. […] In order to reveal the mechanisms underlying DNA damage, complex 3 was studied to detect whether it could suppress the activation of DNA single strand break repair via the phosphorylation of SSB repair mediator/adaptor proteins XRCC1 within nucleus.
For assessment of DSBs repair kinetics we detected the total nuclear volume for an average of 50–60 nuclei per time points and cell type. Briefly, A549 cells were grown to confluence in 35 mm petri-dishes with 0.17 mm glass bottom. […] Non-specific binding was blocked by incubation with 5% FCS/PBS/0.1% Triton X-100 for 1 h at RT. […] Numbers of γH2AX foci were counted in 50–60 nuclei and plotted over time as previously described.

[1] = tested on: A549 and NCI-H1299 cancer cells; assay: H2O2 measurement (Amplex Red); assay type: cell-based, human; details: A549 and NCI-H1299, 10 μM, 2 h
Description: As excessive ROS generation is associated with cell-killing activity, we further examined whether complex 3 could also induce the formation of excessive ROS in A549 and NCI-H1299 cancer cells.
The production of H2O2 was determined with the Amplex® Red reagent (10-acetyl-3,7-dihydroxyphenoxazine; Molecular Probes). In the presence of horseradish peroxidase (HPR), the Amplex® Red reagent reacts in a 1:1 stoichiometry to produce the red-fluorescent oxidation product, resorufin. Consequently, resorufin generation allows the detection of the H2O2 released from biological compounds. […] Resorufin generation was measured over time using a fluorometer (Fluostar BMG Labtech) at 544 nm excitation and 590 nm emission.

CC(C)C[NH+]1[C@@H]2CCCC[C@H]2[NH+](CC(C)C)[Pt-2]12[O]C(=O)CC(=O)[O]2 (some centres unmarked) [Complex 3]
IC50 (MCF-7): 32.5 ± 2.9 µM
Bax and Bcl-2 protein levels (Bax and Bcl-2): Incremental changes in pro-apoptotic Bax and decreased changes anti-apoptotic Bcl-2 protein levels
numbers of SSBs (cancer cells): could effectively increase the numbers of SSBs
phosphorylation of XRCC1 (p-XRCC1): suppression of phosphorylation of XRCC1 compared with oxaliplatin
production of H2O2 [1]: significantly higher
